Reference: publication PMC7822874, “Chemoprotective antimalarials identified through quantitative high-throughput screening of Plasmodium blood and liver stage parasites” (Scientific Reports, 2021)
Several values for one entry are separate records, joined by “and”; a condition that tells them apart may be missing. Equal entries are not always repeated. Where two headings read alike, the source gives them in different places.

Legend:
[1] = tested on: T1, Plasmodium falciparum Dd2-attB-ScDHODH (transgenic line expressing yeast DHODH), asexual blood stages; experiment: organism not typed; set-up: replicate k of 3 (each line is one of three independent assays; the three lines of one compound and parasite line follow each other); conditions: 72 h, n = 1
T1 construct: Dd2-attB-ScDHODH, the transgenic line that expresses yeast DHODH
Procedure: (§1) The overexpression of the fumarate-dependent yeast DHODH confers resistance to compounds that inhibit the parasite mETC, or the parasite DHODH enzyme that depends on ubiquinone provided by the parasite mETC. Assays were performed in three independent assays on a subset of compounds, and differences between the Dd2-attB parental line and the ScDHODH transgenic line were analyzed using two-sided Student’s t-tests.

[2] = tested on: T2, Plasmodium falciparum Dd2-attB (parental line), asexual blood stages; experiment: microbe, parasite or virus in culture; set-up: replicate k of 3 (each line is one of three independent assays; the three lines of one compound and parasite line follow each other); conditions: n = 1; for Individual replicates / Log AC50 (M): 72 h; for AC50: Plasmodium falciparum, DD2, 72 h, read-out: Individual replicates / Log AC50 (converted)
T2 construct: Dd2-attB, the isogenic parental line
Procedure: as §1

[3] = read-out: Individual replicates / Log AC50 (converted)

Row | SMILES | Individual replicates / Log AC50 (M) [1] | AC50 [1, 3] | Individual replicates / Log AC50 (M) [2] | AC50 [2] | AC50 ([1]; read-out: Individual replicates / Log AC50 (M) (converted))
1 | Cc1ccccc1C(OCCN1CCCCC1)c1cc2nccc(Cl)c2s1 (stereo not shown) [NCGC00481525-01] | -5.0486 Log AC50 (M) | 1e-05 M | -5.0486 Log AC50 (M) and -4.9986 Log AC50 (M) | 8.94 µM | 
2 | O=C(/C=C/c1cn(CC(O)CN2CCCCCC2)c2ccccc12)c1ccc(Br)cc1 (stereo not shown) [NCGC00114921-03] | -5.0486 Log AC50 (M) and -5.1986 Log AC50 (M) | 4.48e-06 M | -5.2486 Log AC50 (M) and -5.0986 Log AC50 (M) | 4.48 µM | 
3 | Oc1ccc(NCc2ccccc2F)c2cccnc12 [NCGC00184883-01] | -5.0986 Log AC50 (M) | 1.26e-05 M | -5.0986 Log AC50 (M) and -5.0486 Log AC50 (M) | 12.6 µM | 
4 | CCCN1C(CC(C)C)=N[S+](=O)([O-])c2cc(NC(=O)c3cccs3)ccc21 [NCGC00473217-02] | -6.3986 Log AC50 (M) and -6.0986 Log AC50 (M) and -6.3486 Log AC50 (M) |  | -7.0986 Log AC50 (M) and -6.8486 Log AC50 (M) and -6.8986 Log AC50 (M) |  | 
5 | Oc1ccc(COc2cccc3ccccc23)c2cccnc12 [NCGC00183380-01] |  |  | -4.7986 Log AC50 (M) and -4.7486 Log AC50 (M) | 20 µM | 1.59e-05 M
6 | CC(=O)Nc1cccc(-c2csc(Nc3cc(C)ccn3)n2)c1 [MLS000550799-02] | -4.7486 Log AC50 (M) |  | -4.7486 Log AC50 (M) and -5.0986 Log AC50 (M) and -4.9486 Log AC50 (M) |  | 
7 | O=C(CC[S+](=O)([O-])c1nc(-c2cccs2)cc(C(F)(F)F)n1)Nc1ccc(OC(F)(F)F)cc1 [NCGC00103927-03] | -4.8486 Log AC50 (M) | 1.59e-05 M | -4.7986 Log AC50 (M) | 17.8 µM | 
8 | COC(=O)c1ccc(O)c2ncc(-c3ccc(C(=O)N4CCNCC4)cc3)cc12 [NCGC00189509-01] | -4.9486 Log AC50 (M) and -5.0986 Log AC50 (M) | 5.64e-06 M | -5.0486 Log AC50 (M) and -5.1486 Log AC50 (M) | 5.64 µM | 
9 | Oc1ccc(Oc2ccccc2F)c2cccnc12 [NCGC00184907-01] | -4.8986 Log AC50 (M) and -4.9486 Log AC50 (M) | 1.42e-05 M | -4.9986 Log AC50 (M) and -5.0486 Log AC50 (M) | 8.94 µM | 
10 | Cc1nn2c(c1-c1ccccc1-c1ccccc1)N(Cc1ccc(C(=O)O)s1)CCC2 [NCGC00420478-02] | -4.7486 Log AC50 (M) | 1.42e-05 M | -4.8986 Log AC50 (M) and -4.7986 Log AC50 (M) | 17.8 µM | 
11 | O=C(O)c1ccnc2cc(C(OCCN3CCOCC3)c3ccccc3Cl)[nH]c12 (stereo not shown) [NCGC00421890-01] | -5.3986 Log AC50 (M) and -5.2486 Log AC50 (M) | 5.03e-06 M | -5.1986 Log AC50 (M) | 5.64 µM | 
12 | CN1CCC(CCOC(c2cc3nccc(C(=O)O)c3[nH]2)c2ccccc2Cl)C1 (stereo not shown) [NCGC00481023-01] |  | 8.94e-06 M |  | 12.6 µM | 
13 | CN(C)CCNC(=O)c1cccc(-c2cc(O)c3ncccc3c2)c1 [NCGC00244526-01] | -4.7986 Log AC50 (M) | 1.78e-05 M | -5.0986 Log AC50 (M) and -4.9486 Log AC50 (M) | 14.2 µM | 
14 | CCOC(=O)CCNc1cc(N2CCc3ccccc3CC2)nc(-c2cccnc2)n1 [NCGC00351550-02] | -5.0986 Log AC50 (M) and -4.7986 Log AC50 (M) |  | -4.8486 Log AC50 (M) (2×) and -4.7486 Log AC50 (M) |  | 
15 | O=C(Nc1ccccc1F)c1ccc(O)c2ncccc12 [NCGC00183800-01] | -5.2986 Log AC50 (M) and -5.0486 Log AC50 (M) | 5.64e-06 M | -5.1986 Log AC50 (M) and -5.2486 Log AC50 (M) | 7.1 µM | 
16 | Cc1nn2c(c1-c1ccccc1-c1ccccc1)N(Cc1cccc(C#N)c1)CCC2 [NCGC00499314-01] | -4.9986 Log AC50 (M) and -5.0986 Log AC50 (M) | 1e-05 M | -5.1486 Log AC50 (M) and -5.0486 Log AC50 (M) | 8.94 µM | 
17 | Cc1cccc(N2CCN(C(=O)Cn3ncc4c3-c3ccccc3OC4)CC2)c1C [NCGC00112661-03] | -4.8986 Log AC50 (M) and -5.0986 Log AC50 (M) |  | -4.9486 Log AC50 (M) and -4.7486 Log AC50 (M) |  | 
18 | O=C(c1cccc(-c2cc(O)c3ncccc3c2)c1)N1CCCCC1 [NCGC00244533-01] | -5.1486 Log AC50 (M) and -4.9486 Log AC50 (M) | 7.1e-06 M | -5.0486 Log AC50 (M) and -5.0986 Log AC50 (M) | 6.33 µM | 
19 | Oc1ccc(CNc2ccc(C(F)(F)F)cc2F)c2cccnc12 [NCGC00184889-01] |  | 1.78e-05 M |  | 20 µM | 
20 | Oc1ccc(CNc2ccccn2)c2cccnc12 [NCGC00184898-01] | -4.7486 Log AC50 (M) | 1.42e-05 M | -4.7486 Log AC50 (M) and -4.6986 Log AC50 (M) | 17.8 µM | 
21 | CC(c1ccccc1)N1CCN(c2cnc3c(O)ccc(C(=O)O)c3c2)CC1 (stereo not shown) [NCGC00247745-01] | -4.7986 Log AC50 (M) and -4.7486 Log AC50 (M) | 1.78e-05 M | -4.8486 Log AC50 (M) and -4.7486 Log AC50 (M) | 15.9 µM | 
22 | Cc1ccc(NC2=C(c3ccc(C(F)(F)F)cc3)C(=O)c3ccccc32)cc1F [NCGC00107266-02] | -5.2986 Log AC50 (M) and -5.1986 Log AC50 (M) and -5.5486 Log AC50 (M) |  | -6.3986 Log AC50 (M) and -6.3486 Log AC50 (M) (2×) |  | 
23 | CC(C)c1ccc(Nc2c(-c3ccccn3)nc3ccccn23)cc1 [NCGC00104490-03] | -5.0986 Log AC50 (M) | 5.64e-06 M | -5.1986 Log AC50 (M) and -5.1486 Log AC50 (M) | 5.64 µM | 
24 | Cc1ccc(C(CCN2CCCCC2)c2cc3cccc(C(=O)O)c3[nH]2)cc1 (stereo not shown) [NCGC00389137-01] | -5.3486 Log AC50 (M) and -5.0486 Log AC50 (M) |  | -5.5486 Log AC50 (M) and -5.3986 Log AC50 (M) and -5.1486 Log AC50 (M) |  | 
25 | O=C(O)c1ccnc(-n2ncc(C(CC3CC3)OCCN3CCCCC3)c2-c2cccc(-c3ccccc3)c2)c1 (stereo not shown) [NCGC00487050-01] | -4.7986 Log AC50 (M) and -4.7486 Log AC50 (M) | 1.78e-05 M | -4.7986 Log AC50 (M) and -4.8486 Log AC50 (M) | 15.9 µM | 
26 | Oc1cc(Nc2ccncc2)cc2cccnc12 [NCGC00183791-01] | -4.7486 Log AC50 (M) | 2e-05 M | -4.7486 Log AC50 (M) and -4.7986 Log AC50 (M) | 20 µM | 
27 | O=C(O)c1ccc(O)c2ncc(N3CCCN(CCCc4ccncc4)CC3)cc12 [NCGC00247752-01] | -4.7986 Log AC50 (M) and -4.7486 Log AC50 (M) | 1.78e-05 M | -4.7486 Log AC50 (M) | 12.6 µM | 
28 | Cc1cccc(CN2CCCn3nc(C)c(-c4ccccc4Oc4ccccc4)c32)n1 [NCGC00499720-01] | -4.7986 Log AC50 (M) | 1.59e-05 M | -4.7486 Log AC50 (M) | 20 µM | 
29 | COC(=O)c1ccnc2cc(C(OCCN3CCCCC3)c3ccccc3Cl)[nH]c12 (stereo not shown) [NCGC00420857-01] | -5.0986 Log AC50 (M) | 5.03e-06 M | -5.2986 Log AC50 (M) and -5.1986 Log AC50 (M) | 4.48 µM | 
30 | COC(=O)c1ccc(O)c2ncc(NC3CCNCC3)cc12 [NCGC00241038-01] | -4.8986 Log AC50 (M) and -5.0986 Log AC50 (M) | 7.1e-06 M | -5.1986 Log AC50 (M) and -5.0486 Log AC50 (M) | 8.94 µM | 
